Patent US20210196751A1, “METHODS OF CANCER TREATMENT USING AN ATR INHIBITOR” (Vertex Pharmaceuticals Incorporated, priority 2017, published 2021)

System: panel of 552 cancer cell lines
Assay: Growth inhibition (ATPLite) of ATR inhibitor in combination with cisplatin or gemcitabine; synergy score from AUC difference
Assay type: cell-based
Conditions: 96 hours; for synergy when combined with cisplatin: in combination with cisplatin; for synergy when combined with gemcitabine: in combination with gemcitabine
Experimental: Cell Culture Methods. Cells were removed from liquid nitrogen storage, thawed and expanded in appropriate growth media. Once expanded, cells were seeded in 384-well tissue culture treated plates at 500 cells per well. […] At the end of either 0 hours or 96 hours, cell status was analyzed using ATPLite (adenosine triphosphate monitoring system; Perkin Elmer) to assess the biological response of cells to drug combinations.
In this study, growth inhibition (GI) was used as the primary endpoint. ATP monitoring was performed using ATPLite, which allows for the monitoring of cytocidal, cytostatic and proliferative effects of drugs on cells.
Data Analysis to Assess Synergy of Combination Treatments. […] Synergy was evaluated using the sum of the AUC (Area Under the Curve) difference.
Briefly, combination treatment effect was calculated as the AUC normalized to the single agent effect of the ATR inhibitor compound. Total synergy or antagonism was calculated as the difference between the normalized combination AUC and the genotoxin single agent AUC. As before, the synergy score was normalized by dividing the total synergy score by the total number of regimens used.

| Compound | synergy when combined with cisplatin | synergy when combined with gemcitabine |
| --- | --- | --- |
| Nc1nn2cc(F)cnc2c1C(=O)Nc1cncc(F)c1N1CCC(C(=O)N2CCN(C3COC3)CC2)CC1 [I-G-32] | synergistic | synergistic |
| CNCc1ccc(-c2cc(-c3nc(-c4ccc(S(=O)(=O)C(C)C)cc4)cnc3N)on2)cc1 [IIA-7] | synergistic | synergistic |
